Broadly, the Emax is the maximal effect, on the per cent scale that the assay sets. As a reminder, the EC50 is the concentration that produces a half-maximal response.

Structures are written as SMILES.

For the experiment, the target named is T1, ΔF508-CFTR (Homo sapiens, UniProt P13569, DEL508-508).
T1 construct: expressed in transfected cells
Description: Membrane potential optical assay for potentiators of ΔF508-CFTR (double-addition HTS, FLIPR III). It is filed as cell-based. Conditions: for Emax: 100% efficacy is the maximum response obtained with 4-methyl-2-(5-phenyl-1H-pyrazol-3-yl)phenol; for EC50: temperature-corrected ΔF508 CFTR NIH 3T3 cells, potentiation with forskolin activation. The source says: Membrane Potential Optical Methods for Assaying ΔF508-CFTR Modulation Properties of Compounds
The assay utilizes fluorescent voltage sensing dyes to measure changes in membrane potential using a fluorescent plate reader (e.g., FLIPR III, Molecular Devices, Inc.) as a readout for increase in functional ΔF508-CFTR in NIH 3T3 cells. The driving force for the response is the creation of a chloride ion gradient in conjunction with channel activation by a single liquid addition step after the cells have previously been treated with compounds and subsequently loaded with a voltage sensing dye.
To identify potentiators of ΔF508-CFTR, a double-addition HTS assay format was developed. This HTS assay utilizes fluorescent voltage sensing dyes to measure changes in membrane potential on the FLIPR III as a measurement for increase in gating (conductance) of ΔF508 CFTR in temperature-corrected ΔF508 CFTR NIH 3T3 cells. The driving force for the response is a Cl^− ion gradient in conjunction with channel activation with forskolin in a single liquid addition step using a fluoresecent plate reader such as FLIPR III after the cells have previously been treated with potentiator compounds (or DMSO vehicle control) and subsequently loaded with a redistribution dye.
Bath Solution #1: (in mM) NaCl 160, KCl 4.5, CaCl2 2, MgCl2 1, HEPES 10, pH 7.4 with NaOH.
Chloride-Free Bath Solution: Chloride Salts in Bath Solution #1 are Substituted with Gluconate Salts.
NIH3T3 mouse fibroblasts stably expressing ΔF508-CFTR are used for optical measurements of membrane potential. The cells are maintained at 37° C. in 5% CO2 and 90% humidity in Dulbecco's modified Eagle's medium supplemented with 2 mM glutamine, 10% fetal bovine serum, 1×NEAA, β-ME, 1× pen/strep, and 25 mM HEPES in 175 cm^2 culture flasks. For all optical assays, the cells were seeded at ˜20,000/well in 384-well matrigel-coated plates and cultured for 2 hrs at 37° C. before culturing at 27° C. for 24 hrs. for the potentiator assay. For the correction assays, the cells are cultured at 27° C. or 37° C. with and without compounds for 16-24 hours. Electrophysiological Assays for assaying ΔF508-CFTR modulation properties of compounds.

T1 sequence (P13569 with tags, fused parts or gaps DEL508-508): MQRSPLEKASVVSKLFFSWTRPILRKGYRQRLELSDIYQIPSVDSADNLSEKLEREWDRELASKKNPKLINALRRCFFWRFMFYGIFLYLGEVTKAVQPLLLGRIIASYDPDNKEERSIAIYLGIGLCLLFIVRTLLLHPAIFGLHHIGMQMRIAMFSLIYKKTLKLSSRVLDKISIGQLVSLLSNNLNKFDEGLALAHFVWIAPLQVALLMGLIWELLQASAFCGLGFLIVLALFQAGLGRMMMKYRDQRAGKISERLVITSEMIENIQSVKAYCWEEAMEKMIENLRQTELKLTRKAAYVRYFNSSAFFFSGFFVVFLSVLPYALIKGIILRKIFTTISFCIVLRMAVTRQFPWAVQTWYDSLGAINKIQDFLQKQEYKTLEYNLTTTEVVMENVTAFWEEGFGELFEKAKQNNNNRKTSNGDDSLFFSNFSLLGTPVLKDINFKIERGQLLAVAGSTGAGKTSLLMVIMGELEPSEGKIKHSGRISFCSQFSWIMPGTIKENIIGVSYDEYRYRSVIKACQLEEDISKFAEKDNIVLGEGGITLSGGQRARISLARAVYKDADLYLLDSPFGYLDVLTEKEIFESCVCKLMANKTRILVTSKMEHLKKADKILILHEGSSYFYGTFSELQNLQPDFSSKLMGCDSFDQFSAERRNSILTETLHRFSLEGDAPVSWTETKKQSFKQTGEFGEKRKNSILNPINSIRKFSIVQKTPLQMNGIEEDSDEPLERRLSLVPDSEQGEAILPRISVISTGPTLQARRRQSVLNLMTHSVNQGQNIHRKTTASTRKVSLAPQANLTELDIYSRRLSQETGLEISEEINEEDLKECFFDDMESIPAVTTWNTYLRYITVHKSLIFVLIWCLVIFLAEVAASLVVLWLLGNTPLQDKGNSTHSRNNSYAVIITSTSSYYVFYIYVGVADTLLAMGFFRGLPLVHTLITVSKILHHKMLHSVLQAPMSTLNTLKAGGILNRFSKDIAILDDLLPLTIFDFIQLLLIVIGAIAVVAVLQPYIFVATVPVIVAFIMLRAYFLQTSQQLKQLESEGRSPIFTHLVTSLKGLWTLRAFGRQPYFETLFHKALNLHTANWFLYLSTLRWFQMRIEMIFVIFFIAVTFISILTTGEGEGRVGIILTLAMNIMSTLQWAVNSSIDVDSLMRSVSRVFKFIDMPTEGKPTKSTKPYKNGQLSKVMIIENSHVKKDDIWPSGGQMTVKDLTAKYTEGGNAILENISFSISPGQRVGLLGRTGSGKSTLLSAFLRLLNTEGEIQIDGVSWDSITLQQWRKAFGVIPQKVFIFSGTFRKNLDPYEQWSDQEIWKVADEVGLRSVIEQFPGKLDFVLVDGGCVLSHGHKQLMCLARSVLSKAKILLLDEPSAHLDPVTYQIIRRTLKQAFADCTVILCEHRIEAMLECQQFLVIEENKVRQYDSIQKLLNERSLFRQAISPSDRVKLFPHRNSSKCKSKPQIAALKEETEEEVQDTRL

As to `Cc1cc2[nH]cc(C(=O)Nc3cc(O)c(C(C)(C)C)cc3C(C)(C)C)c(=O)n2n1` [Compound 1], the maximal effect (Emax) is 25 to 100% and the half-maximal effective concentration (EC50) is less than 5 µM.
With `CC(C)(C)c1c[nH]c2cc(NC(=O)c3c[nH]c4ccnn4c3=O)ccc12` [Compound 2], the maximal response (Emax) is greater than 100% and the EC50 was less than 5 µM.
Taken in the same sequence, the figures for `Cc1cc2[nH]cc(C(=O)Nc3ccc(N4CCC(C)(C)C4)cc3C(F)(F)F)c(=O)n2c1` [Compound 3] were 25 to 100% and less than 5 µM.
Taken in the same sequence, the figures for `Cc1cc2[nH]cc(C(=O)Nc3cc4[nH]ccc4cc3C(C)(C)C)c(=O)n2n1` [Compound 4] were 25 to 100% and less than 5 µM.
The corresponding values for `CC(C)(C)c1cc(C(C)(C)C)c(NC(=O)c2c[nH]c3ccnn3c2=O)cc1O` [Compound 5, N-(2,4-di-tert-butyl-5-hydroxyphenyl)-7-oxo-4,7-dihydropyrazolo[1,5-a]pyrimidine-6-carboxamide] are 25 to 100% and less than 5 µM.
`CC(C)(C)c1cc2cc[nH]c2cc1NC(=O)c1c[nH]c2ccnn2c1=O` [Compound 6]: the maximal effect (Emax) fell in the range of 25 to 100% and the half-maximal effective concentration (EC50) is less than 5 µM.
As for `CCc1cc2[nH]cc(C(=O)Nc3ccc4c(C(F)(F)F)c[nH]c4c3)c(=O)n2c1` [Compound 7], the Emax is 25 to 100% and the EC50 was less than 5 µM.
`O=C(Nc1cc2[nH]ccc2cc1C(F)(F)F)c1c[nH]c2ccnn2c1=O` [Compound 8]: the Emax was 25 to 100% and the EC50 lay in the range of 5 to 20 µM.
Taken in the same sequence, the figures for `CCc1cc2[nH]cc(C(=O)Nc3ccc4c(C(C)(C)C)c[nH]c4c3)c(=O)n2c1` [Compound 9] were 25 to 100% and less than 5 µM.
The corresponding values for `Cc1cc2[nH]cc(C(=O)Nc3ccc4cc[nH]c4c3)c(=O)n2n1` [Compound 10] are 25 to 100% and greater than 20 µM.
The corresponding values for `CCc1cc2[nH]cc(C(=O)Nc3cc4[nH]ccc4cc3C(F)(F)F)c(=O)n2c1` [Compound 11] are 25 to 100% and less than 5 µM.
In the case of `CCc1cc2[nH]cc(C(=O)Nc3cc(O)c(C4(C)CCCCC4)cc3F)c(=O)n2c1` [Compound 12], the Emax lay in the range of 25 to 100% and the half-maximal effective concentration (EC50) was in the range of 5 to 20 µM.
The corresponding values for `O=C(Nc1ccc(N2CCCC2)cc1C(F)(F)F)c1c[nH]c2ccnn2c1=O` [Compound 13] are 25 to 100% and 5 to 20 µM.
Taken in the same sequence, the figures for `CCc1cc2[nH]cc(C(=O)Nc3cc(O)c(C(C)(C)C)cc3C(C)(C)C)c(=O)n2c1` [Compound 14, N-(2,4-di-tert-butyl-5-hydroxyphenyl)-7-ethyl-4-oxo-1,4-dihydropyrrolo[1,2-a]pyrimidine-3-carboxamide] were 25 to 100% and less than 5 µM.
Taken in the same sequence, the figures for `Cc1cc2[nH]cc(C(=O)Nc3cc(O)c(C4(C)CCCCC4)cc3F)c(=O)n2c1` [Compound 15] were 25 to 100% and less than 5 µM.
As to `Cc1cc2[nH]cc(C(=O)Nc3cc(O)c(C4CCCC4)cc3C(F)(F)F)c(=O)n2c1` [Compound 16], the Emax lay within 25 to 100% and the concentration giving a half-maximal response (EC50) was less than 5 µM.
As for `Cc1cc2[nH]cc(C(=O)Nc3ccc4c(C(F)(F)F)c[nH]c4c3)c(=O)n2c1` [Compound 17], the maximum response (Emax) fell in the range of 25 to 100% and the EC50 was less than 5 µM.
`Cc1cc2[nH]cc(C(=O)Nc3cc(O)c(C4CCCC4)cc3C)c(=O)n2c1` [Compound 18]: the Emax fell in the range of 25 to 100% and the EC50 was less than 5 µM.
Taken in the same sequence, the figures for `Cc1cc2[nH]cc(C(=O)Nc3cc(O)c(C4CCCC4)cc3C#N)c(=O)n2c1` [Compound 19] were 25 to 100% and less than 5 µM.

The values above are taken from patent US8552006B2, “Modulators of cystic fibrosis transmembrane conductance regulator” (Vertex Pharmaceuticals Incorporated, priority 2007, dated 2013).
